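Each compound was tested at five concentrations against cells in 96-well plates for 48 hours. Here, GI50 denotes the concentration required for 50% inhibition of growth. Definition used: TGI = concentration required for complete inhibition of growth.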
Key:
Assay in all cases: growth of human tumour cells (NCI), 48 h
UO-31 renal = tested on: UO-31 renal
MOLT-4 leukemia = tested on: MOLT-4 leukemia
KM12 colon = tested on: KM12 colon
SNB-19 CNS = tested on: SNB-19 CNS
SF-268 CNS = tested on: SF-268 CNS
NCI-H460 lung = tested on: NCI-H460 lung
OVCAR-8 ovarian = tested on: OVCAR-8 ovarian
HT29 colon = tested on: HT29 colon
RXF 393 renal = tested on: RXF 393 renal
TK-10 renal = tested on: TK-10 renal
OVCAR-4 ovarian = tested on: OVCAR-4 ovarian
PC-3 prostate = tested on: PC-3 prostate
HL-60(TB) leukemia = tested on: HL-60(TB) leukemia
NCI-H522 lung = tested on: NCI-H522 lung
T-47D breast = tested on: T-47D breast
HOP-92 NSCLC = tested on: HOP-92 NSCLC
A498 renal = tested on: A498 renal
HCT-15 colon = tested on: HCT-15 colon
SW-620 colon = tested on: SW-620 colon
786-0 renal = tested on: 786-0 renal
COLO 205 colon = tested on: COLO 205 colon
ACHN renal = tested on: ACHN renal
SNB-75 CNS = tested on: SNB-75 CNS
MCF7 breast = tested on: MCF7 breast
HCT-116 colon = tested on: HCT-116 colon
EKVX NSCLC = tested on: EKVX NSCLC
HOP-62 NSCLC = tested on: HOP-62 NSCLC
MDA-MB-231 breast = tested on: MDA-MB-231 breast
RPMI-8226 leukemia = tested on: RPMI-8226 leukemia
SF-539 CNS = tested on: SF-539 CNS
SN12C renal = tested on: SN12C renal
A549 NSCLC = tested on: A549 NSCLC
SR leukemia = tested on: SR leukemia
SK-MEL-5 melanoma = tested on: SK-MEL-5 melanoma
UACC-62 melanoma = tested on: UACC-62 melanoma
OVCAR-5 ovarian = tested on: OVCAR-5 ovarian
CCRF-CEM leukemia = tested on: CCRF-CEM leukemia
SF-295 CNS = tested on: SF-295 CNS
MDA-MB-435 = tested on: MDA-MB-435
U251 CNS = tested on: U251 CNS
M14 melanoma = tested on: M14 melanoma
NCI-H226 lung = tested on: NCI-H226 lung
DU-145 prostate = tested on: DU-145 prostate
LOX IMVI melanoma = tested on: LOX IMVI melanoma
SK-OV-3 ovarian = tested on: SK-OV-3 ovarian
HS 578T breast = tested on: HS 578T breast
NCI-H23 lung = tested on: NCI-H23 lung
UACC-257 melanoma = tested on: UACC-257 melanoma
IGROV1 ovarian = tested on: IGROV1 ovarian
HCC-2998 colon = tested on: HCC-2998 colon
CAKI-1 renal = tested on: CAKI-1 renal
MALME-3M melanoma = tested on: MALME-3M melanoma
SK-MEL-28 melanoma = tested on: SK-MEL-28 melanoma
BT-549 breast = tested on: BT-549 breast
SK-MEL-2 melanoma = tested on: SK-MEL-2 melanoma
K-562 leukemia = tested on: K-562 leukemia
NCI/ADR-RES ovarian = tested on: NCI/ADR-RES ovarian

CN(C)CCNC(=O)c1ccc(-c2nc3ccc4[nH]ncc4c3c3c2CCC3)cc1
GI50 (UO-31 renal): 1070 nM | TGI (UO-31 renal): 4660 nM | GI50 (MOLT-4 leukemia): 1040 nM | TGI (MOLT-4 leukemia): 15300 nM | GI50 (KM12 colon): 1080 nM | TGI (KM12 colon): 4620 nM | GI50 (SNB-19 CNS): 1470 nM | TGI (SNB-19 CNS): 6210 nM | GI50 (SF-268 CNS): 634 nM | TGI (SF-268 CNS): 2140 nM | GI50 (NCI-H460 lung): 1280 nM | TGI (NCI-H460 lung): 5170 nM | GI50 (OVCAR-8 ovarian): 854 nM | TGI (OVCAR-8 ovarian): 5800 nM | GI50 (HT29 colon): 1290 nM | TGI (HT29 colon): 6130 nM | GI50 (RXF 393 renal): 279 nM | TGI (RXF 393 renal): 1100 nM | GI50 (TK-10 renal): 295 nM | TGI (TK-10 renal): 5380 nM | GI50 (OVCAR-4 ovarian): 1330 nM | TGI (OVCAR-4 ovarian): 5480 nM | GI50 (PC-3 prostate): 717 nM | TGI (PC-3 prostate): 4960 nM | GI50 (HL-60(TB) leukemia): 992 nM | TGI (HL-60(TB) leukemia): 3340 nM | GI50 (NCI-H522 lung): 387 nM | TGI (NCI-H522 lung): 1320 nM | GI50 (T-47D breast): 1370 nM | TGI (T-47D breast): 9660 nM | GI50 (HOP-92 NSCLC): 343 nM | TGI (HOP-92 NSCLC): 1840 nM | GI50 (A498 renal): 281 nM | TGI (A498 renal): 1070 nM | GI50 (HCT-15 colon): 1610 nM | TGI (HCT-15 colon): 7630 nM | GI50 (SW-620 colon): 611 nM | TGI (SW-620 colon): 3610 nM | GI50 (786-0 renal): 882 nM | TGI (786-0 renal): 5610 nM | GI50 (COLO 205 colon): 507 nM | TGI (COLO 205 colon): 2230 nM | GI50 (ACHN renal): 844 nM | TGI (ACHN renal): 6860 nM | GI50 (SNB-75 CNS): 543 nM | TGI (SNB-75 CNS): 2040 nM | GI50 (MCF7 breast): 657 nM | TGI (MCF7 breast): 5250 nM | GI50 (HCT-116 colon): 331 nM | TGI (HCT-116 colon): 4340 nM | GI50 (EKVX NSCLC): 891 nM | TGI (EKVX NSCLC): 5010 nM | GI50 (HOP-62 NSCLC): 593 nM | TGI (HOP-62 NSCLC): 2670 nM | GI50 (MDA-MB-231 breast): 927 nM | TGI (MDA-MB-231 breast): 2840 nM | GI50 (RPMI-8226 leukemia): 1190 nM | TGI (RPMI-8226 leukemia): 4140 nM | GI50 (SF-539 CNS): 606 nM | TGI (SF-539 CNS): 1740 nM | GI50 (SN12C renal): 1130 nM | TGI (SN12C renal): 4150 nM | GI50 (A549 NSCLC): 1260 nM | TGI (A549 NSCLC): 6780 nM | GI50 (SR leukemia): 140 nM | TGI (SR leukemia): 2820 nM | GI50 (SK-MEL-5 melanoma): 1600 nM | TGI (SK-MEL-5 melanoma): 5980 nM | GI50 (UACC-62 melanoma): 1100 nM | TGI (UACC-62 melanoma): 6100 nM | GI50 (OVCAR-5 ovarian): 1400 nM | TGI (OVCAR-5 ovarian): 7340 nM | GI50 (CCRF-CEM leukemia): 857 nM | TGI (CCRF-CEM leukemia): 28700 nM | GI50 (SF-295 CNS): 1340 nM | TGI (SF-295 CNS): 5380 nM | GI50 (MDA-MB-435): 1130 nM | TGI (MDA-MB-435): 6990 nM | GI50 (U251 CNS): 1020 nM | TGI (U251 CNS): 6510 nM | GI50 (M14 melanoma): 961 nM | TGI (M14 melanoma): 6080 nM | GI50 (NCI-H226 lung): 1010 nM | TGI (NCI-H226 lung): 6340 nM | GI50 (DU-145 prostate): 760 nM | TGI (DU-145 prostate): 5010 nM | GI50 (LOX IMVI melanoma): 616 nM | TGI (LOX IMVI melanoma): 1500 nM | GI50 (SK-OV-3 ovarian): 288 nM | TGI (SK-OV-3 ovarian): 3040 nM | GI50 (HS 578T breast): 549 nM | TGI (HS 578T breast): 1990 nM | GI50 (NCI-H23 lung): 1190 nM | TGI (NCI-H23 lung): 3940 nM | GI50 (UACC-257 melanoma): 2310 nM | TGI (UACC-257 melanoma): 8360 nM | GI50 (IGROV1 ovarian): 684 nM | TGI (IGROV1 ovarian): 5400 nM | GI50 (HCC-2998 colon): 1250 nM | TGI (HCC-2998 colon): 5680 nM | GI50 (CAKI-1 renal): 263 nM | TGI (CAKI-1 renal): 5540 nM | GI50 (MALME-3M melanoma): 1260 nM | TGI (MALME-3M melanoma): 4130 nM | GI50 (SK-MEL-28 melanoma): 1310 nM | TGI (SK-MEL-28 melanoma): 5340 nM | GI50 (BT-549 breast): 650 nM | TGI (BT-549 breast): 1430 nM | GI50 (SK-MEL-2 melanoma): 850 nM | TGI (SK-MEL-2 melanoma): 1830 nM | GI50 (K-562 leukemia): 1110 nM | TGI (K-562 leukemia): 20100 nM | GI50 (NCI/ADR-RES ovarian): 9070 nM | TGI (NCI/ADR-RES ovarian): 50000 nM
